Where a SMILES comes first, the peptide text is derived from it.
Columns and labels:
MMP-2 = assay: Zymography in the presence of gelatine, conditioned medium of UACC-903 cells; assay type: cell-based, human; settings: cyclopeptide 5 to 20 μM, linear heptapeptide 20 μM
Experimental: (§1) FIG. 11: Effect of YSNSG (SEQ ID NO: 3) cyclopeptide on secretion of MMP-2 and MMP-9. The secretion of MMP-2 and MMP-9 was analyzed by zymography in the presence of gelatine (A), on a medium conditioned by UACC-903 cells in the absence of peptide (negative control, white bar), on cells treated with linear heptapeptide CNYYSNS (SEQ ID NO: 5) (20 μM) (positive control, black bar) or cells treated with concentrations of 5 μM to 20 μM of cyclopeptide (grey bars) YSNSG (SEQ ID NO: 3). The conditioned medium was collected and analyzed as described in the method. Quantification was carried out using Bio 1D software. B: quantification of proMMP2; C: quantification of proMMP-9 (A.U.: arbitrary unit);
(§2) The expression of MMP-2 and MMP-9 in a conditioned medium of UACC-903 cells, treated or not treated with synthetic peptides, was analyzed by zymography in the presence of gelatine as described above (Pasco et al, 2000(a)). The secretion of TIMP-2 was analyzed in a conditioned medium of UACC-903 cells by reverse zymography in the presence of gelatine, as described above (Pascal et al, 2000(a)).

MMP-9 = assay: as above; assay type: cell-based, human; settings: cyclopeptide 5 to 20 μM, linear heptapeptide 20 μM
Experimental: as §1, §2

MMP-14 = assay: Western blot of proMMP-14 / MMP-14, UACC-903 cells; assay type: cell-based, human; settings: 20 μM
Experimental: FIG. 12: Effect of YSNSG (SEQ ID NO: 3) cyclopeptide on expression and activation of MMP-14. Expression of proMMP-14 (white bar) and MMP-14 (black bar) was studied by Western Blot (A) in a medium conditioned by UACC-903 cells in the absence of peptide (control), on cells treated with the linear heptapeptide CNYYSNS (SEQ ID NO: 5) (20 μm) or treated with the cyclopeptide YSNSG (SEQ ID NO: 3) at a concentration of 20 μM (cyclopeptide YSNSG (SEQ ID NO: 3)). The conditioned medium was recovered and analyzed as described in the methods. Quantification was carried out using Bio 1D software. (B);
(§3) The samples underwent 10% polyacrylamide gel electrophoresis in the presence of 0.1% SDS then were transferred onto Immobilon-P membranes (Millipore, St Quentin en Yvelines, France). The membranes were saturated with 5% freeze dried skimmed milk, Tween 20 0.1% in a 50 mM Tris-HCl, 150 mM NaCl buffer, pH 7.5 (TBS) for 2 hours at ambient temperature. The membranes were then incubated overnight at 4° C. with anti-MMP-14, anti-PAI-1 and anti-u-PAR antibodies then incubated for one hour at ambient temperature with a secondary antibody (anti-IgG) conjugated with peroxidase. The immune complexes were visualized with an ECL chemoluminescence detection kit.

[1] = system: B16F1 murine melanoma cells; assay: Measurement of in vivo tumour growth, pre-incubated B16F1 cells injected s.c.; set-up: species or system C57BL6 mice; settings: day 20; for in vivo tumour growth: B16F1 cells pre-incubated 15 minutes with 20 μM peptide, s.c. in C57BL6 mice
Experimental: FIG. 16: In vivo tumour growth in the presence of YSNSG (SEQ ID NO: 3) cyclopeptide. B16F1 cells were incubated for 15 minutes with a control medium (negative control, white diamonds), with the linear heptapeptide CNYYSNS (SEQ ID NO: 5) (20 μM) (positive control, black diamonds) or with the cyclopeptide YSNSG (SEQ ID NO: 3) at a concentration of 20 μM (grey diamonds), then injected subcutaneously into syngenic C57BL6 mice (2.5×10^5 cells per mouse). The tumour volume was measured on the 20th day;
Female C57BL6 mice (mean body weight 18 to 20 g) were purchased from Harlan France (Gannat, France). The animals were placed in individual cages at a constant temperature and humidity; food and water were supplied ad libitum. All of the mice underwent a 1 week acclimatization period before commencing the experiments. The in vivo experiments were carried out in accordance with the recommendations of the Centre National de la recherché Scientifique (CNRS, National Centre for Scientific Research).
A suspension of B16F1 cells (2.5×10^5 cells in RPMI 1640 medium) which may or may not have been pre-treated with the cyclopeptide YSNSG (SEQ ID NO: 3) (20 μM) was injected subcutaneously into the left flank of syngenic mice from a different series. The mice were sacrificed on day 20 and the tumour size was measured. The volume of the tumours was determined by the relationship V=½A×B^2 in which A and B respectively represent the largest and the smallest dimension of the tumour (Wald et al).

HMEC-1 cells = assay: Formation of capillary pseudotubes on Matrigel; assay type: cell-based, human; settings: 24 hours
Experimental: FIG. 17: In vitro anti-angiogenic activity of cyclopeptide YSNSG (SEQ ID NO: 3). A: microscope photographs of the network of capillary pseudotubes of HMEC-1 endothelial cells after 24 hours incubation in the absence of peptide (control; 1), with the cyclopeptide YSNSG (SEQ ID NO: 3) at a concentration of 10 or 20 μM (2 and 3 respectively) or with the linear heptapeptide CNYYSNS (SEQ ID NO: 5) (20 μM) (positive control; 4). B: quantification of number of pseudotubes in photographs in A;
The in vitro anti-angiogenic activity of the cyclopeptide YSNSG (SEQ ID NO: 3) was measured on the formation of capillary pseudotubes by endothelial HMEC-1 or HUVEC cells deposited on a Matrigel mat.
A solution of Matrigel (ECM gel: 10 mg/ml) was deposited in a sterile manner in 24-well plates (Nunclon) in an amount of 250 μl per well onto piled ice. Gel formation was obtained by incubating the plate at 37° C. for 30 min. HMEC-1 cells or HUVEC cells at sub-confluence were detached from their plastic culture support by adding trypsin/EDTA then taken up into suspension in the culture medium for endothelial cells and diluted to a concentration of 2×10^5 cells per ml. 100 μl volumes of this cell suspension were deposited on the gel surface. […] Quantification was carried out using image analysis software.

MT1-MMP = assay: Western blot of proMMP-14 / MMP-14, HUVEC membrane extracts; assay type: cell-based, human; settings: 20 μM
Experimental: FIG. 19: Effect of YSNSG (SEQ ID NO: 3) cyclopeptide on expression and activation of MMP-14 by HUVEC cells. The expression of proMMP-14 and MMP-14 was studied by Western blot (A). The HUVEC cells were cultivated in the absence (control) or in the presence of 20 μM of YSNSG (SEQ ID NO: 3) cyclopeptide and the corresponding membrane extracts were analyzed. Quantification was carried out using Bio 1D software (B);
as §3

Molecule | secretion of MMP-2 (MMP-2) | secretion of MMP-9 (MMP-9) | activation of proMMP-14 (MMP-14) | expression of proMMP-14 (MMP-14) | in vivo tumour growth [1] | reduction in tumour volume ([1]; B16F1 cells pre-treated with 20 μM, no re-injection of peptide, C57BL6 mice) [%] | reduces the formation of pseudotubes (HMEC-1 cells; 10 μM) [%] | reduces the formation of pseudotubes (HMEC-1 cells; 20 μM) | reduction in the activation of MT1-MMP (MT1-MMP) [%]
NC(=O)CC1NC(=O)C(CO)NC(=O)C(Cc2ccc(O)cc2)NC(=O)CNC(=O)C(CO)NC1=O (centres unmarked) [cyclopeptide YSNSG, cyclopeptide YSNSG (SEQ ID NO: 3)] (cyclo(GYSNS); configuration not given here) | No significant change | No significant change | completely abolished | strongly inhibited | inhibited tumour growth | 46 | 40 | up to 70% | 56
CNYYSNS (Synthetic linear heptapeptide) [linear peptide NC1 [α3(IV) 185-191], the 7 N-terminal amino acids of the 185-203 domain; positive control, reference compound] | No significant change | No significant change | same intensity | same intensity | inhibited tumour growth |  |  |  | 

From patent publication US20090305955A1, “Cyclopeptide with Anti-Cancer Activity Derived from Collagen Type IV” (priority 2006, published 2009)
